Experimental findings from US20040077640A1 (priority 2000, published 2004) are described below.

Structures can show the parent of a compound that is named as a salt.

For the compound `c1ccc(CN2CCC(c3nc(-c4ccc(-c5ccccc5)cc4)c[nH]3)CC2)cc1` [Example 12, 1-benzyl4-[4-(1,1′-biphenyl-4-yl)-1H-imidazol-2-yl]piperidine], the melting point was 110 to 112 °C.

With `COc1ccc(-c2c[nH]c(C3CCNCC3)n2)cc1` (as salt: hydrochloride), the melting point lay within 272 to 273 °C.

Take `CCCCOC(=O)N1CCCC(c2nc(-c3ccc(-c4ccccc4)cc3)c[nH]2)C1` (stereo not drawn) [Example 24, butyl 3-[4-(1,1′-biphenyl-4-yl)-1H-imidazol-2-yl]piperidine-1-carboxylate]: the melting point fell in the range of 116 to 117 °C.

With `CC(C)(C)OC(=O)N1CCC(c2nc(-c3ccc(F)cc3)c[nH]2)CC1`, the melting point was 180 to 182 °C.

As for `CCCCOC(=O)N1CCC(c2nc(-c3ccc(OC)cc3)c[nH]2)CC1` [Example 26, butyl 4-[4-(4-methoxyphenyl)-1H-imidazol-2-yl]piperidine-1-carboxylate], the melting point was 48 to 50 °C.

`Fc1ccc(-c2c[nH]c(C3CCCCN3Cc3ccccc3)n2)cc1` (stereo not drawn) [Example 17, 1-benzyl-2-[4-(4-fluorophenyl)-1H-imidazol-2-yl]piperidine] had a melting point of 181.6 °C.

In turn, `CCCCOC(=O)N1CCCCC1c1nc(-c2ccc(F)cc2)c[nH]1` (stereo not drawn) had a melting point of 157.4 °C.

In turn, `CCCCOC(=O)N1CCCCC1c1nc(-c2ccc(-c3ccccc3)cc2)c[nH]1` (stereo not drawn) [Example 23, butyl 2-[4-(1,1′-biphenyl-4-yl)-1H-imidazol-2-yl]piperidine-1-carboxylate] displayed a melting point of 166 to 167 °C.

`CCCCOC(=O)N1CCC(c2nc(-c3ccc(-c4ccccc4)cc3)c[nH]2)CC1` [Example 20, butyl 4-[4-(1,1′-biphenyl-4-yl)-1H-imidazol-2-yl]piperidine-1-carboxylate] registered a melting point of 73 to 74 °C.

In turn, `c1ccc(-c2ccc(-c3c[nH]c(C4CCCNC4)n3)cc2)cc1` (stereo not drawn) (as salt: hydrochloride) [Example 22, 3-[4-(1,1′-biphenyl-4-yl)-1H-imidazol-2-yl]piperidine] gave a melting point of 226 to 227 °C.

As for `CCCCOC(=O)N1CCCC(c2nc(-c3ccc(F)cc3)c[nH]2)C1` (stereo not drawn), the melting point came to 96.5 °C.

Compound `Fc1ccc(-c2c[nH]c(C3CCCCN3)n2)cc1` (stereo not drawn) (as salt: hydrochloride) came in with a melting point of 222 to 223 °C.

With `CCCCCCN1CCC(c2nc(-c3ccc(-c4ccccc4)cc3)c[nH]2)CC1` [Example 19, 4-[4-(1,1′-biphenyl-4-yl)-1H-imidazol-2-yl]-1-hexylpiperidine], the melting point was in the range of 138 to 139 °C.

In turn, `Fc1ccc(-c2c[nH]c(C3CCNCC3)n2)cc1` (as salt: hydrochloride) returned a melting point above 260 °C.

The compound `CCCCOC(=O)N1CCC(c2nc(-c3ccc(C(C)(C)C)cc3)c[nH]2)CC1` [Example 13, butyl 4-[4-(4-tert-butylphenyl)-1H-imidazol-2-yl]piperidine-1-carboxylate] gave a melting point of 98 to 100 °C.
